These results are taken from paper PMC8804615, “Characterization and comparison of recombinant full‐length ursine and human sex hormone‐binding globulin” (FEBS Open Bio, 2021).

The target of one data set is T1, ursine SHBG (uSHBG) (Ursus arctos, UniProt Z9D432XYQ2).
T1 construct: homodimer ~93 kDa, glycosylated; 402 aa precursor
The data set is described as follows: competition with [3H]DHT, dextran-coated charcoal separation. The format is binding. To be noted: ~6 nM [3H]DHT; data not shown.

In the next data set the target is T2, human SHBG (hSHBG) (Homo sapiens, UniProt P04278).
T2 construct: homodimer ~94 kDa, glycosylated
T2 sequence (P04278 30-402): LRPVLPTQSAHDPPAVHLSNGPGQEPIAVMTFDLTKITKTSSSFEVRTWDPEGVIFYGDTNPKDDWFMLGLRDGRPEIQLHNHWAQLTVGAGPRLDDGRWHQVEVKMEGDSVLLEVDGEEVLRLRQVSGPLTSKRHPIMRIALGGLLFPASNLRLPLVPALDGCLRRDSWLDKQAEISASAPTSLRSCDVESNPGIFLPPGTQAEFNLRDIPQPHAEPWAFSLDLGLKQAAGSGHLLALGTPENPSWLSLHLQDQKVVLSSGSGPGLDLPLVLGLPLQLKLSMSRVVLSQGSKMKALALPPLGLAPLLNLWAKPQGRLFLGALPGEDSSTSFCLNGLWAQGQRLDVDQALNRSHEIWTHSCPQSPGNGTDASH
Described as above. The format is binding. To be noted: ~6 nM [3H]DHT; data not shown.

For data set [1], the target named is recombinant full-length ursine sex hormone-binding globulin with a C-terminal FLAG tag (Ursus arctos (brown bear)). The experiment in a line: SEC-MALS; WYATT 30S5 SEC column, 20 mM Tris-HCl, 250 mM NaCl (for the ursine measurements), 1 mM CaCl2, 1 uM DHT, pH 8.0; about 10 ug SHBG injected; dimer. (In general: Size exclusion chromatography separates by hydrodynamic size, large species first.)

Data set [2] concerns the molecule itself. The experiment in a line: SEC-MALS; WYATT 30S5 SEC column, 20 mM Tris-HCl, 150 mM NaCl, 1 mM CaCl2, 1 uM DHT, pH 8.0; about 10 ug SHBG injected; dimer.
Data set [3] concerns the molecule itself. The experiment in a line: SEC-MALS; native human serum SHBG; WYATT 30S5 SEC column, 20 mM Tris-HCl, 150 mM NaCl, 1 mM CaCl2, 1 uM DHT, pH 8.0; dimer.

T1 sequence (Z9D432XYQ2 27-402 limits assumed): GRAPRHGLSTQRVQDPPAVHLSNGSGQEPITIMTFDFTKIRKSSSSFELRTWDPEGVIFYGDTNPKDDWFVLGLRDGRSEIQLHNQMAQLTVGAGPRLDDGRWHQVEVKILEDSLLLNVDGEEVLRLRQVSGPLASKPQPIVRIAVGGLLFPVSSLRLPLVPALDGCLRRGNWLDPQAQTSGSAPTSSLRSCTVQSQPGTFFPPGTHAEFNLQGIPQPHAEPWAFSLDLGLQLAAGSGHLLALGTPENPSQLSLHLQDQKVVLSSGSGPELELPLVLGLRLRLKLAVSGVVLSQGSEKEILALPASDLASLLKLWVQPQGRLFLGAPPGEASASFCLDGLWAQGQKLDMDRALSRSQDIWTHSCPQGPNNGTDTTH

Turning to `C[C@]12C[C@H](O)[C@H]3[C@@H](CCC4=CC(=O)CC[C@@]43C)[C@@H]1CC[C@@H]2C(=O)CO` [corticosterone], the “RBA (DHT = 100%)” value on ursine SHBG (uSHBG) and at human SHBG (hSHBG) was < 1% throughout.

Take `C[C@]12CC[C@H](O)CC1=CC[C@@H]1[C@@H]2CC[C@]2(C)C(=O)CC[C@@H]12` [dehydroepiandrosterone]: the “RBA (DHT = 100%)” value at ursine SHBG (uSHBG) and on human SHBG (hSHBG) was < 1% throughout.

With `CC(=O)[C@H]1CC[C@H]2[C@@H]3CCC4=CC(=O)CC[C@]4(C)[C@H]3CC[C@]12C` [progesterone], the “RBA (DHT = 100%)” value at ursine SHBG (uSHBG) and at human SHBG (hSHBG) was < 1% throughout.

`C[C@]12CC[C@H]3[C@@H](CCC4=CC(=O)CC[C@@]43C)[C@@H]1CC[C@@H]2C(=O)CO` [deoxycorticosterone]: at human SHBG (hSHBG), the “RBA (DHT = 100%)” value is < 1%.

In the case of `C[C@]12CCC(=O)C=C1CC[C@@H]1[C@@H]2CC[C@@]2(C)[C@H]1CC[C@]2(O)C(=O)CO` [11‐deoxycortisol], the “RBA (DHT = 100%)” value on ursine SHBG (uSHBG) and at human SHBG (hSHBG) was < 1% each time.

Usually stoichiometry N stands for the number of molecules, sites or subunits per partner or assembly. For the molecule “recombinant full-length ursine sex hormone-binding globulin with a C-terminal FLAG tag (natural protein)”, the stoichiometry N in data set [1] was found to be 2.

For the molecule `C[C@]12CCC(=O)C=C1CC[C@@H]1[C@@H]2CC[C@]2(C)C(=O)CC[C@@H]12` [androstenedione], the “RBA (DHT = 100%)” value on ursine SHBG (uSHBG) and on human SHBG (hSHBG) was < 1% throughout.

B1: recombinant full-length human sex hormone-binding globulin with a C-terminal FLAG tag (natural protein, UniProt P04278-1 30-402, looked up)
chain: T2 sequence (P04278 30-402)
modifications: glycosylated (insect cell glycans); disulfide Cys164-Cys188 verified by MALDI-ToF MS
notes: precursor of 402 residues expressed with its native signal peptide (29 residues, [residues removed]), which is cleaved on secretion; a second N-terminus one residue shorter (RPVLPTQ...) was also seen by MS. numbers count on: the mature protein; cDNA amplified from human liver total RNA; also called human SHBG; hSHBG; not shown: FLAG, C-terminal, kept
As to B1, in data set [2], the “stoichiometry N” value was 2.

B2: native human serum SHBG (natural protein, UniProt P04278-1 30-402, looked up)
chain: T2 sequence (P04278 30-402)
notes: also called native serum SHBG; SHBG present in human serum
On to B2, for which, in data set [3], the “stoichiometry N” value is 2.
